PubChem BioAssay AID1963839 (Molecular Pharmacology Branch, DTP, NCI, 2024)

System: 817829-284-R-J1-PDC complex spheroid viability
Assay: Anticancer human tumor 817829-284-R-J1-PDC patient-derived colon adenocarcinoma cell line growth inhibition [POLQ]
Details: for IC50: curve of first compound; for viability, T/C: stronger effect = lower value; active means viability on the fitted dose curve at most 10% of control; inactive means the rest
Method in brief: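 Complex spheroid viability model combining PDC tumour cells with endothelial (HUVEC) and MSC stromal cells. Novobiocin, ART-558 or RP6685 were tested singly and in combination with standard and investigational anticancer drugs. Each was titrated in half-log steps from near clinical Cmax, or from 10 microM where Cmax was unknown.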

[1] = second compound 0.0316 µM, first compound 0.0316 µM
[2] = second compound 0.0316 µM, first compound 0.1 µM
[3] = second compound 0.0316 µM, first compound 0.316 µM
[4] = second compound 0.0316 µM, first compound 1 µM
[5] = second compound 0.1 µM, first compound 0.0316 µM
[6] = second compound 0.1 µM, first compound 0.1 µM
[7] = second compound 0.1 µM, first compound 0.316 µM
[8] = second compound 0.1 µM, first compound 1 µM
[9] = second compound 0.316 µM, first compound 0.0316 µM
[10] = second compound 0.316 µM, first compound 0.1 µM
[11] = second compound 0.316 µM, first compound 0.316 µM
[12] = second compound 0.316 µM, first compound 1 µM
[13] = second compound 1 µM, first compound 0.0316 µM
[14] = second compound 1 µM, first compound 0.1 µM
[15] = second compound 1 µM, first compound 0.316 µM
[16] = second compound 1 µM, first compound 1 µM
[17] = second compound 3.16 µM, first compound 0.0316 µM
[18] = second compound 3.16 µM, first compound 0.1 µM
[19] = second compound 3.16 µM, first compound 0.316 µM
[20] = second compound 3.16 µM, first compound 1 µM
[21] = second compound 10 µM, first compound 0.0316 µM
[22] = second compound 10 µM, first compound 0.1 µM
[23] = second compound 10 µM, first compound 0.316 µM
[24] = second compound 10 µM, first compound 1 µM
[25] = second compound 0.0316 µM, first compound 3.16 µM
[26] = second compound 0.0316 µM, first compound 10 µM
[27] = second compound 0.1 µM, first compound 3.16 µM
[28] = second compound 0.1 µM, first compound 10 µM
[29] = second compound 0.316 µM, first compound 3.16 µM
[30] = second compound 0.316 µM, first compound 10 µM
[31] = second compound 1 µM, first compound 3.16 µM
[32] = second compound 1 µM, first compound 10 µM
[33] = second compound 3.16 µM, first compound 3.16 µM
[34] = second compound 3.16 µM, first compound 10 µM
[35] = second compound 10 µM, first compound 3.16 µM
[36] = second compound 10 µM, first compound 10 µM
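Further: spheroids exposed to compounds for 7 days.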
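Wherever viability, T/C is given: 100% = DMSO vehicle-treated spheroids.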

CCc1c2c(nc3ccc(O)cc13)-c1cc3c(c(=O)n1C2)COC(=O)[C@]3(O)CC + Nc1ccc(C#CCN(C(=O)Cc2ncc(C(F)(F)F)cc2C(F)(F)F)c2ccc(F)cc2)nn1
< 0.00316 µM: IC50 (second compound 0.0316 µM) | IC50 (second compound 0.1 µM) | IC50 (second compound 0.316 µM) | IC50 (second compound 1 µM) | IC50 (second compound 3.16 µM) | IC50 (second compound 10 µM)
inactive: viability, T/C (second compound 0.0316 µM, first compound 0.00316 µM) 22.5% | viability, T/C (second compound 0.0316 µM, first compound 0.01 µM) 14.5% | viability, T/C [1] 14.1% | viability, T/C (second compound 0.1 µM, first compound 0.00316 µM) 20.9% | viability, T/C (second compound 0.1 µM, first compound 0.01 µM) 17.8% | viability, T/C [5] 12.8% | viability, T/C (second compound 0.316 µM, first compound 0.00316 µM) 18.2% | viability, T/C (second compound 0.316 µM, first compound 0.01 µM) 19.1% | viability, T/C [9] 11.2% | viability, T/C (second compound 1 µM, first compound 0.00316 µM) 22.2% | viability, T/C (second compound 1 µM, first compound 0.01 µM) 21.4% | viability, T/C [13] 14.4% | viability, T/C (second compound 3.16 µM, first compound 0.00316 µM) 15.1% | viability, T/C (second compound 3.16 µM, first compound 0.01 µM) 16.2% | viability, T/C [17] 13% | viability, T/C (second compound 10 µM, first compound 0.00316 µM) 21.7% | viability, T/C (second compound 10 µM, first compound 0.01 µM) 17% | viability, T/C [21] 10%
active: viability, T/C [2] 9.79% | viability, T/C [3] 5.25% | viability, T/C [4] 3.01% | viability, T/C [6] 8.52% | viability, T/C [7] 4.76% | viability, T/C [8] 2.98% | viability, T/C [10] 7.52% | viability, T/C [11] 4.9% | viability, T/C [12] 2.95% | viability, T/C [14] 7.16% | viability, T/C [15] 4.75% | viability, T/C [16] 2.54% | viability, T/C [18] 7.06% | viability, T/C [19] 4.44% | viability, T/C [20] 2.95% | viability, T/C [22] 7.06% | viability, T/C [23] 3.78% | viability, T/C [24] 2.98%

C=CC(=O)N1CCN(c2nc(=O)n(-c3c(C)ccnc3C(C)C)c3nc(-c4c(O)cccc4F)c(F)cc23)C(C)C1 (stereo not drawn) + Nc1ccc(C#CCN(C(=O)Cc2ncc(C(F)(F)F)cc2C(F)(F)F)c2ccc(F)cc2)nn1
9.67 µM: IC50 (second compound 3.16 µM)
inactive: viability, T/C [1] 77.4% | viability, T/C [2] 103% | viability, T/C [3] 97.2% | viability, T/C [4] 93.5% | viability, T/C [25] 91.7% | viability, T/C [26] 51.3% | viability, T/C [5] 95% | viability, T/C [6] 110% | viability, T/C [7] 101% | viability, T/C [8] 99.8% | viability, T/C [27] 84.2% | viability, T/C [28] 60.5% | viability, T/C [9] 104% | viability, T/C [10] 91.3% | viability, T/C [11] 96.6% | viability, T/C [12] 98% | viability, T/C [29] 93.5% | viability, T/C [30] 61.6% | viability, T/C [13] 102% | viability, T/C [14] 119% | viability, T/C [15] 112% | viability, T/C [16] 97.8% | viability, T/C [31] 94.5% | viability, T/C [32] 52.9% | viability, T/C [17] 96% | viability, T/C [18] 89% | viability, T/C [19] 102% | viability, T/C [20] 90.8% | viability, T/C [33] 76.2% | viability, T/C [34] 49.2% | viability, T/C [21] 114% | viability, T/C [22] 84.1% | viability, T/C [23] 90.6% | viability, T/C [24] 90% | viability, T/C [35] 79.8% | viability, T/C [36] 51%
> 10 µM: IC50 (second compound 0.0316 µM) | IC50 (second compound 0.1 µM) | IC50 (second compound 0.316 µM) | IC50 (second compound 1 µM) | IC50 (second compound 10 µM)

C=CC(=O)N1CCN(c2nc(=O)n(-c3c(C)ccnc3C(C)C)c3nc(-c4c(O)cccc4F)c(F)cc23)C(C)C1 (stereo not drawn) + COC1C(OC(N)=O)C(O)C(Oc2ccc3c(O)c(NC(=O)c4ccc(O)c(CC=C(C)C)c4)c(=O)oc3c2C)OC1(C)C
> 10 µM: IC50 (second compound 0.0316 µM) | IC50 (second compound 0.1 µM) | IC50 (second compound 0.316 µM) | IC50 (second compound 1 µM) | IC50 (second compound 3.16 µM) | IC50 (second compound 10 µM)
inactive: viability, T/C [1] 87.6% | viability, T/C [2] 125% | viability, T/C [3] 89.3% | viability, T/C [4] 99.9% | viability, T/C [25] 121% | viability, T/C [26] 67.3% | viability, T/C [5] 124% | viability, T/C [6] 100% | viability, T/C [7] 133% | viability, T/C [8] 83.3% | viability, T/C [27] 118% | viability, T/C [28] 76.2% | viability, T/C [9] 115% | viability, T/C [10] 127% | viability, T/C [11] 104% | viability, T/C [12] 97.4% | viability, T/C [29] 95.7% | viability, T/C [30] 59.6% | viability, T/C [13] 132% | viability, T/C [14] 104% | viability, T/C [15] 77.8% | viability, T/C [16] 140% | viability, T/C [31] 89.3% | viability, T/C [32] 51.2% | viability, T/C [17] 102% | viability, T/C [18] 108% | viability, T/C [19] 123% | viability, T/C [20] 97% | viability, T/C [33] 80.4% | viability, T/C [34] 72.2% | viability, T/C [21] 78.8% | viability, T/C [22] 96.8% | viability, T/C [23] 80.7% | viability, T/C [24] 98.2% | viability, T/C [35] 107% | viability, T/C [36] 57.3%

COc1cccc2c1C(=O)c1c(O)c3c(c(O)c1C2=O)CC(O)(C(=O)CO)CC3OC1CC(N)C(O)C(C)O1 (stereo not drawn) + COC1C(OC(N)=O)C(O)C(Oc2ccc3c(O)c(NC(=O)c4ccc(O)c(CC=C(C)C)c4)c(=O)oc3c2C)OC1(C)C
0.109 µM: IC50 (second compound 1 µM)
0.143 µM: IC50 (second compound 3.16 µM)
0.11 µM: IC50 (second compound 0.0316 µM)
< 0.0316 µM: IC50 (second compound 0.1 µM) | IC50 (second compound 0.316 µM) | IC50 (second compound 10 µM)
inactive: viability, T/C [1] 17.6% | viability, T/C [2] 90.5% | viability, T/C [5] 16.5% | viability, T/C [6] 75.1% | viability, T/C [9] 14.3% | viability, T/C [10] 82% | viability, T/C [13] 22.7% | viability, T/C [14] 84.3% | viability, T/C [17] 21.1% | viability, T/C [18] 119% | viability, T/C [21] 15.7% | viability, T/C [22] 83.3%
active: viability, T/C [3] 5.53% | viability, T/C [4] 1.37% | viability, T/C [25] 0.16% | viability, T/C [26] 0.52% | viability, T/C [7] 6.74% | viability, T/C [8] 0.41% | viability, T/C [27] 0.25% | viability, T/C [28] 0.49% | viability, T/C [11] 7.31% | viability, T/C [12] 0.98% | viability, T/C [29] 0.19% | viability, T/C [30] 0.45% | viability, T/C [15] 6.03% | viability, T/C [16] 1.44% | viability, T/C [31] 0.19% | viability, T/C [32] 0.51% | viability, T/C [19] 6.03% | viability, T/C [20] 0.63% | viability, T/C [33] 0.27% | viability, T/C [34] 0.51% | viability, T/C [23] 5.98% | viability, T/C [24] 0.49% | viability, T/C [35] 0.31% | viability, T/C [36] 0.47%
